Experimental data taken from article PMC11350787, “Antimicrobial Properties and Cytotoxicity of LL-37-Derived Synthetic Peptides to Treat Orthopedic Infections” (Antibiotics, 2024).
Peptide text beside a SMILES is read from it.

Key:
[1] = system: red blood cells (RBC); test: Hemolytic activity assessment; format: cell-based; details: at 18.75 µg/mL; human RBC suspension in PBS, 1 h 37 °C, absorbance 414 nm; 0.1% Triton-X100 = 100%
Method: The pellet containing erythrocytes was washed 3 times in PBS centrifuging at 700× g for 8 min at RT. Finally, 40 µL of pellet containing red blood cells (RBC) was diluted in 8 mL of PBS, obtaining a 0.5% v/v RBC suspension.
The 96-well V plate was incubated at 37 °C for 1 h, then centrifuged at 1000× g for 10 min, and the supernatant (60 µL) was transferred to a 96-well flat bottom microplate for the absorption analysis on a microplate reader at 414 nm. The positive control (PC, 100% hemolysis) consisted of 0.1% Triton-X100 in PBS (pH 7.4), while PBS alone served as the negative control (NC, 0% hemolysis). Each hemolysis activity assessment test was carried out in two replicates and repeated three times.
NCs and PCs were averaged, then results were normalized to the average of PC and NC according to the following formula: % Hemolysis = (Abs treated − Abs NC/Abs PC − Abs NC) × 100. The hemolytic activity was also tested on TFA to exclude any toxicity caused by the buffer.

[2] = system: S. epidermidis ATCC 14990; test: microbe, parasite or virus in culture
Excerpt: (§1) A total of 18 bacterial strains relevant to orthopedic infections were used for microbiological tests, including 8 ATCC (American Type Culture Collection, ATCC, Manassas, VA, USA) and 10 clinical isolates (CI) from the Laboratory of Clinical Chemistry and Microbiology, IRCCS Ospedale Galeazzi–Sant’Ambrogio of Milan (Italy) strain collection. The ATCC strains were used for the first screening (MIC/MBC) of all the AMPs produced, while the clinical isolates were used for further MIC/MBC assays on selected AMPs. Among CI, S. epidermidis GOI1153754-03-14 has been already characterized and used in previous studies. All the strains were stocked at −80°C and working stocks were stored at −20 °C. At the occurrence, the bacteria were resuscitated in Brain Hearth Infusion (BHI, Millipore, Milan, Italy) broth at 37 °C for 18 h from the working stocks.
(§2) To determine the minimum inhibitory concentration (MIC) and the minimum bactericidal concentration (MBC), ISO20776-1 and Clinical and Laboratory Standards Institute guidelines were followed. A commercial synthetic LL-37 (Aurogene, Rome, Italy) was used as the control in the MIC and MBC assays. A stock solution of each AMP was prepared at 600 µg/mL to achieve a final concentration of 300 µg/mL. […] The MIC was determined according to the aforementioned standard guidelines. The MBC was determined by plating 2 µL of culture from each well of the MIC plates on a Tryptic Soy Agar (TSA, Millipore, Milan, Italy) plate and incubated for 24 h at 37 °C. The concentration at which there was no growth was recorded as MBC. Each experiment was carried out in triplicate. Representative MIC and MBC values for vancomycin and gentamicin were assessed to offer a benchmark comparison for the AMPs. Quality control was conducted with Staphylococcus aureus ATCC 29,213 and vancomycin according to EUCAST guidelines.

[3] = system: E. coli ATCC 25922; test: microbe, parasite or virus in culture
Excerpt: as §1, §2

[4] = system: S. epidermidis GOI1153754-03-14 (CI); test: microbe, parasite or virus in culture; details: GOI1153754-03-14 (CI, 18 h)
Excerpt: as §1, §2

[5] = system: P. aeruginosa ATCC 27853; test: microbe, parasite or virus in culture
Excerpt: as §1, §2

[6] = system: S. aureus ATCC 43300; test: microbe, parasite or virus in culture
Excerpt: as §1, §2

[7] = system: S. aureus ATCC 25923; test: microbe, parasite or virus in culture
Excerpt: as §1, §2

[8] = system: S. epidermidis ATCC 35984; test: microbe, parasite or virus in culture
Excerpt: as §1, §2

[9] = system: S. aureus ATCC 49230; test: microbe, parasite or virus in culture
Excerpt: as §1, §2

[10] = system: E. coli Eco75 (CI); details: Eco75 (CI, 18 h)
Excerpt: as §1, §2

[11] = system: P. aeruginosa Pae82 (CI); details: Pae82 (CI, 18 h)
Excerpt: as §1, §2

[12] = system: Staphylococci; details: 18 h
Excerpt: as §1, §2

[13] = system: E. coli Eco61 (CI); details: Eco61 (CI, 18 h)
Excerpt: as §1, §2

[14] = system: S. aureus Sau89 (CI); details: Sau89 (CI, 18 h)
Excerpt: as §1, §2

[15] = system: S. aureus Sau221 (CI); details: Sau221 (CI, 18 h)
Excerpt: as §1, §2

[16] = system: P. aeruginosa Pae61 (CI); details: Pae61 (CI, 18 h)
Excerpt: as §1, §2

[17] = system: S. aureus Sau39 (CI); details: Sau39 (CI, 18 h)
Excerpt: as §1, §2

[18] = system: P. aeruginosa Pae2 (CI); details: Pae2 (CI, 18 h)
Excerpt: as §1, §2

[19] = system: E. coli Eco53 (CI); details: Eco53 (CI, 18 h)
Excerpt: as §1, §2

## CC[C@H](C)[C@H](NC(=O)[C@H](CCCNC(=N)N)NC(=O)[C@H](CCC(N)=O)NC(=O)[C@@H](NC(=O)[C@@H](NC(=O)[C@H](CCCNC(=N)N)NC(=O)[C@H](CCCCN)NC(=O)[C@H](Cc1ccccc1)NC(=O)CN)[C@@H](C)CC)C(C)C)C(=O)N[C@@H](CCCCN)C(=O)N[C@@H](CC(=O)O)C(=O)N[C@@H](Cc1ccccc1)C(=O)N[C@@H](CC(C)C)C(=O)N[C@@H](CCCNC(=N)N)C(=O)N[C@@H](CC(N)=O)C(=O)N[C@@H](CC(C)C)C(=O)N[C@H](C(N)=O)C(C)C [GF-17] (H-GFKRIVQRIKDFLRNLV-NH2)
[1]
  Hemolytic activity: below 1%
[2]; ATCC 14990, 18 h
  Minimum Inhibitory Concentration (MIC): 4.69 µg/mL
[2]; ATCC 14990, 24 h
  Minimum Bactericidal Concentration (MBC): 75.00 µg/mL
[3]; ATCC 25922, 18 h
  Minimum Inhibitory Concentration (MIC): 9.38 µg/mL
[3]; ATCC 25922, 24 h
  Minimum Bactericidal Concentration (MBC): 300.00 µg/mL
[4]
  Minimum Bactericidal Concentration (MBC): 37.50 µg/mL
  Minimum Inhibitory Concentration (MIC): 2.34 µg/mL
[5]; ATCC 27853, 18 h
  Minimum Inhibitory Concentration (MIC): 18.75 µg/mL
[5]; ATCC 27853, 24 h
  Minimum Bactericidal Concentration (MBC): 75.00 µg/mL
[6]; ATCC 43300, 18 h
  Minimum Inhibitory Concentration (MIC): 4.69 µg/mL
[6]; ATCC 43300, 24 h
  Minimum Bactericidal Concentration (MBC): 150.00 µg/mL
[7]; ATCC 25923, 18 h
  Minimum Inhibitory Concentration (MIC): 2.34 µg/mL
[7]; ATCC 25923, 24 h
  Minimum Bactericidal Concentration (MBC): 37.50 µg/mL
[8]; ATCC 35984, 18 h
  Minimum Inhibitory Concentration (MIC): 2.34 µg/mL
[8]; ATCC 35984, 24 h
  Minimum Bactericidal Concentration (MBC): 4.69 µg/mL
[9]; ATCC 49230, 18 h
  Minimum Inhibitory Concentration (MIC): 4.69 µg/mL
[9]; ATCC 49230, 24 h
  Minimum Bactericidal Concentration (MBC): 75.00 µg/mL
[10]
  Minimum Bactericidal Concentration (MBC): 75.00 µg/mL
  Minimum Inhibitory Concentration (MIC): 18.75 µg/mL
[11]
  Minimum Bactericidal Concentration (MBC): 300.00 µg/mL
  Minimum Inhibitory Concentration (MIC): 75.00 µg/mL
[12]
  MBC range (bactericidal effect) against Staphylococci: 4.69 to 150 µg/mL
[13]
  Minimum Bactericidal Concentration (MBC): 18.75 µg/mL
  Minimum Inhibitory Concentration (MIC): 9.38 µg/mL
[14]
  Minimum Bactericidal Concentration (MBC): 4.69 µg/mL
  Minimum Inhibitory Concentration (MIC): 4.69 µg/mL
[15]
  Minimum Bactericidal Concentration (MBC): 18.75 µg/mL
  Minimum Inhibitory Concentration (MIC): 9.38 µg/mL
[16]
  Minimum Bactericidal Concentration (MBC): 150.00 µg/mL
  Minimum Inhibitory Concentration (MIC): 37.50 µg/mL
[17]
  Minimum Bactericidal Concentration (MBC): 9.38 µg/mL
  Minimum Inhibitory Concentration (MIC): 2.34 µg/mL
[18]
  Minimum Bactericidal Concentration (MBC): 150.00 µg/mL
  Minimum Inhibitory Concentration (MIC): 150.00 µg/mL
[19]
  Minimum Bactericidal Concentration (MBC): 75.00 µg/mL
  Minimum Inhibitory Concentration (MIC): 18.75 µg/mL
